We go through 33 compounds from patent US20240400555A1 (Initial Therapeutics, Inc., priority 2023, published 2024).

SMILES strings stand for the structures.

The subject of this assay is HCT-116 Firefly-luciferase reporter cells. The assay is described as follows: Cellular c-MYC Reporter Assay. Type of assay: cell-based. To be noted: Homo sapiens; untitled table following Table 8a; HCT-116 Firefly-luciferase reporter cells, 24 h; read-out: pIC50 (converted). The procedure, abridged: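 Reporter cells seeded at 5e4 cells/mL in McCoy's 5A with 10% FBS and G418, dosed after 4–6 h at 0.2% final DMSO. After 24 h at 37 °C, luciferase luminescence was read with ONE-Glo.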
On the technique in general: A reporter such as luciferase makes a cellular process visible.
As for `Cc1cn(-c2ccc(C(=O)N(c3nccc4cccc(C)c34)[C@@H]3CCCNC3)cc2)nn1` [Example 236, (R)-4-(4-methyl-1H-1,2,3-triazol-1-yl)-N-(8-methylisoquinolin-1-yl)-N-(piperidin-3-yl)benzamide], the IC50 was 0.166 µM. Take `Cc1cccc2ccnc(N(C(=O)c3ccc(-c4cccnn4)cc3)[C@@H]3CCCNC3)c12` [Example 237, (R)—N-(8-methylisoquinolin-1-yl)-N-(piperidin-3-yl)-4-(pyridazin-3-yl)benzamide]: the IC50 is 0.589 µM.

In the case of `Cc1cccc2ccnc(N(C(=O)c3ccc(-c4cnccn4)cc3)[C@@H]3CCCNC3)c12` [Example 238, (R)—N-(8-methylisoquinolin-1-yl)-N-(piperidin-3-yl)-4-(pyrazin-2-yl)benzamide], the IC50 was 0.24 µM. As for `Cc1cccc2ccnc(N(C(=O)c3ccc(-c4cnn(C)c4)cc3)[C@@H]3CCCNC3)c12` [Example 239, (R)-4-(1-methyl-1H-pyrazol-4-yl)-N-(8-methylisoquinolin-1-yl)-N-(piperidin-3-yl)benzamide], the figure is 0.437 µM; as for `Cc1cccc2ccnc(N(C(=O)c3ccc(-n4nnc5cccnc54)cc3)[C@@H]3CCCNC3)c12` [Example 241, (R)-4-(3H-[1,2,3]triazolo[4,5-b]pyridin-3-yl)-N-(8-methylisoquinolin-1-yl)-N-(piperidin-3-yl)benzamide], 0.0603 µM; as for `Cc1cccc2ccnc(N(C(=O)c3ccc(-n4nnc5cccnc54)cc3F)[C@@H]3CCCNC3)c12` [Example 242, (R)-4-(3H-[1,2,3]triazolo[4,5-b]pyridin-3-yl)-2-fluoro-N-(8-methylisoquinolin-1-yl)-N-(piperidin-3-yl)benzamide], 0.038 µM. Regarding `Cc1cccc2ccnc(N(C(=O)c3ccc(-n4nnc5cccnc54)cn3)[C@@H]3CCCNC3)c12` [Example 244, (R)-5-(3H-[1,2,3]triazolo[4,5-b]pyridin-3-yl)-N-(8-methylisoquinolin-1-yl)-N-(piperidin-3-yl)picolinamide], the IC50 is 0.107 µM. Regarding `Cc1cccc2ccnc(N(C(=O)c3ccc(-n4nnc5cccnc54)nc3)[C@@H]3CCCNC3)c12` [Example 245, (R)-6-(3H-[1,2,3]triazolo[4,5-b]pyridin-3-yl)-N-(8-methylisoquinolin-1-yl)-N-(piperidin-3-yl)nicotinamide], the IC50 is 0.155 µM. Regarding `O=C(c1ccc(-n2nnc3cccnc32)cc1F)N(c1nccc2cccc(Cl)c12)[C@@H]1CCCNC1` [Example 246, (R)-4-(3H-[1,2,3]triazolo[4,5-b]pyridin-3-yl)-N-(8-chloroisoquinolin-1-yl)-2-fluoro-N-(piperidin-3-yl)benzamide], the IC50 was 0.0331 µM.

In the case of `CN(C)C(=O)c1cccnc1N(C(=O)c1ccc(-n2nnc3cccnc32)cc1F)[C@@H]1CCCNC1` [Example 247, (R)-2-(4-(3H-[1,2,3]triazolo[4,5-b]pyridin-3-yl)-2-fluoro-N-(piperidin-3-yl)benzamido)-N,N-dimethylnicotinamide], the IC50 is 5.01 µM.

As for `Cn1cnc2ccnc(N(C(=O)c3ccc(-n4nnc5cccnc54)cc3F)[C@@H]3CCCNC3)c21` [Example 248, (R)-4-(3H-[1,2,3]triazolo[4,5-b]pyridin-3-yl)-2-fluoro-N-(3-methyl-3H-imidazo[4,5-c]pyridin-4-yl)-N-(piperidin-3-yl)benzamide], the IC50 is 0.851 µM. As for `O=C(c1ccc(-n2nnc3cccnc32)cc1F)N(c1nccc2ncccc12)[C@@H]1CCCNC1` [Example 249, (R)-4-(3H-[1,2,3]triazolo[4,5-b]pyridin-3-yl)-2-fluoro-N-(1,6-naphthyridin-5-yl)-N-(piperidin-3-yl)benzamide], the figure is 1.41 µM. As for `Cc1cccc2ccnc(N(C(=O)N3CCC(c4cc(C(F)F)no4)CC3)[C@@H]3CCCNC3)c12` [Example 250, (R)-4-(3-(difluoromethyl)isoxazol-5-yl)-N-(8-methylisoquinolin-1-yl)-N-(piperidin-3-yl)piperidine-1-carboxamide], the figure is 0.813 µM; as for `Cc1cn(-c2ccc(C(=O)N(c3nccc4cccc(C)c34)[C@@H]3CCCNC3)c(F)c2)nn1` [Example 251, (R)-2-fluoro-4-(4-methyl-1H-1,2,3-triazol-1-yl)-N-(8-methylisoquinolin-1-yl)-N-(piperidin-3-yl)benzamide], 0.0676 µM. On to `Cc1cnc(N(C(=O)c2ccc(-n3nnc4cccnc43)cc2F)[C@@H]2CCCNC2)c2c(C)cccc12` [Example 252, (R)-4-(3H-[1,2,3]triazolo[4,5-b]pyridin-3-yl)-N-(4,8-dimethylisoquinolin-1-yl)-2-fluoro-N-(piperidin-3-yl)benzamide], for which the IC50 was 1.41 µM.

On to `Cc1ccc(C)c2c(N(C(=O)c3ccc(-n4nnc5cccnc54)cc3F)[C@@H]3CCCNC3)nccc12` [Example 253, (R)-4-(3H-[1,2,3]triazolo[4,5-b]pyridin-3-yl)-N-(5,8-dimethylisoquinolin-1-yl)-2-fluoro-N-(piperidin-3-yl)benzamide], for which the IC50 was 0.115 µM. In the case of `Cc1cc(C)c2c(N(C(=O)c3ccc(-n4nnc5cccnc54)cc3F)[C@@H]3CCCNC3)nccc2c1` [Example 254, (R)-4-(3H-[1,2,3]triazolo[4,5-b]pyridin-3-yl)-N-(6,8-dimethylisoquinolin-1-yl)-2-fluoro-N-(piperidin-3-yl)benzamide], the IC50 is 0.0617 µM.

On to `Cc1cn(C)c2c(N(C(=O)c3ccc(-n4nnc5cccnc54)cc3F)[C@@H]3CCCNC3)nccc12` [Example 255, (R)-4-(3H-[1,2,3]triazolo[4,5-b]pyridin-3-yl)-N-(1,3-dimethyl-1H-pyrrolo[2,3-c]pyridin-7-yl)-2-fluoro-N-(piperidin-3-yl)benzamide], for which the IC50 was 0.1 µM.

For the compound `CN1CCC(C2CCN(C(=O)N(c3cc4ccccc4cn3)[C@@H]3CCCNC3)CC2)C1` (stereo partly drawn) [Example 256, N-(isoquinolin-3-yl)-4-(1-methylpyrrolidin-3-yl)-N—((R)-piperidin-3-yl)piperidine-1-carboxamide], the IC50 is 9.12 µM. The figure for `Cc1cccc2ccnc(N(C(=O)N3CC=C(c4noc5cc(F)ccc45)CC3)[C@@H]3CCCNC3)c12` [Example 257, (R)-4-(6-fluorobenzo[d]isoxazol-3-yl)-N-(8-methylisoquinolin-1-yl)-N-(piperidin-3-yl)-3,6-dihydropyridine-1(2H)-carboxamide] is 4.17 µM; for `Cc1cccc2ccnc(N(C(=O)N3CCCCC3C(=O)N(C)C)[C@@H]3CCCNC3)c12` (stereo partly drawn) [Example 258, N^2,N^2-dimethyl-N^1-(8-methylisoquinolin-1-yl)-N1-((R)-piperidin-3-yl)piperidine-1,2-dicarboxamide] it is 7.24 µM; for `Cc1cccc2ccnc(N(C(=O)N3CCCCC3c3nc4ccccc4s3)[C@@H]3CCCNC3)c12` (stereo partly drawn) [Example 259, 2-(benzo[d]thiazol-2-yl)-N-(8-methylisoquinolin-1-yl)-N—((R)-piperidin-3-yl)piperidine-1-carboxamide] it is 8.32 µM.

Regarding `Cc1cccc2ccnc(N(C(=O)N3CCCC(CC4CCC4)C3)[C@@H]3CCCNC3)c12` (stereo partly drawn) [Example 260, 3-(cyclobutylmethyl)-N-(8-methylisoquinolin-1-yl)-N—((R)-piperidin-3-yl)piperidine-1-carboxamide], the IC50 was 5.25 µM. As to `Cc1cccc2ccnc(N(C(=O)N3CCCC(C4CCC4)CC3)[C@@H]3CCCNC3)c12` (stereo partly drawn) [Example 261, 4-cyclobutyl-N-(8-methylisoquinolin-1-yl)-N—((R)-piperidin-3-yl)azepane-1-carboxamide], the IC50 was 5.5 µM. Regarding `Cc1cccc2ccnc(N(C(=O)N3CCC(c4nc(C5CC5)no4)CC3)[C@@H]3CCCNC3)c12` [Example 262, (R)-4-(3-cyclopropyl-1,2,4-oxadiazol-5-yl)-N-(8-methylisoquinolin-1-yl)-N-(piperidin-3-yl)piperidine-1-carboxamide], the IC50 was 0.575 µM. On to `Cc1cccc2ccnc(N(C(=O)N3CCC(c4nc(-c5ccccc5)no4)CC3)[C@@H]3CCCNC3)c12` [Example 263], for which the IC50 is 1.26 µM. The figure for `Cc1cccc2ccnc(N(C(=O)N3CCN(c4nsc5ccccc45)CC3)[C@@H]3CCCNC3)c12` [Example 264, (R)-4-(benzo[d]isothiazol-3-yl)-N-(8-methylisoquinolin-1-yl)-N-(piperidin-3-yl)piperazine-1-carboxamide] is 3.98 µM; for `Cc1cccc2ccnc(N(C(=O)N3CCC4(CC3)OCCc3ccsc34)[C@@H]3CCCNC3)c12` [Example 265, (R)—N-(8-methylisoquinolin-1-yl)-N-(piperidin-3-yl)-4′,5′-dihydrospiro[piperidine-4,7′-thieno[2,3-c]pyran]-1-carboxamide] it is 5.75 µM.

Consider `Cc1cccc2ccnc(N(C(=O)N3CCC(n4ncc5ccccc54)CC3)[C@@H]3CCCNC3)c12` [Example 266, (R)-4-(1H-indazol-1-yl)-N-(8-methylisoquinolin-1-yl)-N-(piperidin-3-yl)piperidine-1-carboxamide], for which the IC50 was 2.95 µM.

As for `Cc1cccc2ccnc(N(C(=O)N3CCCC(C)(c4ccccc4)C3)[C@@H]3CCCNC3)c12` (stereo partly drawn) [Example 267, 3-methyl-N-(8-methylisoquinolin-1-yl)-3-phenyl-N—((R)-piperidin-3-yl)piperidine-1-carboxamide], the IC50 is 5.37 µM. The figure for `Cc1cccc2ccnc(N(C(=O)N3CCC(n4c(=O)ccc5ccccc54)CC3)[C@@H]3CCCNC3)c12` [Example 268, (R)—N-(8-methylisoquinolin-1-yl)-4-(2-oxoquinolin-1(2H)-yl)-N-(piperidin-3-yl)piperidine-1-carboxamide] is 5.89 µM; for `Cc1cccc2ccnc(N(C(=O)N3CCC(c4cccc(O)c4)CC3)[C@@H]3CCCNC3)c12` [Example 269, (R)-4-(3-hydroxyphenyl)-N-(8-methylisoquinolin-1-yl)-N-(piperidin-3-yl)piperidine-1-carboxamide] it is 3.55 µM; for `Cc1cccc2ccnc(N(C(=O)N3CCN(c4nncc5ccccc45)CC3)[C@@H]3CCCNC3)c12` [Example 270] it is 2 µM.
